Results: patent publication US20230100193A1, “NOVEL PHARMACEUTICAL FORMULATIONS CONTAINING INDIRUBIN AND DERIVATIVES THEREOF AND METHODS OF MAKING AND USING THE SAME” (Cytodigm, Inc., priority 2017, published 2023)

Experiment: Dissolution measurement after 30 minutes in 2% Tween 20 in PBS, HPLC of supernatant
Assay type: physicochemical
Conditions: after stirring for 30 minutes, centrifuged 14,000 rpm 15 min, HPLC 292 nm, 6-BIA 1.10 mg in 110 mL, nanoparticles approx. 1.32 mg/ml 6-BIA
Experimental: As a control, dissolution of 6-BIA without polymer was first tested. 1.10 mg of 6-BIA was added to 110 mL of 2% Tween 20 in PBS. After stirring for 30 minutes, 1 mL of the resulting suspension was immediately collected to an Eppendorf tube. The Eppendorf tube was centrifuged at 14,000 rpm for 15 min.
Encapsulated 6-BIA nanoparticles obtained in Example 4 were re-suspended in 2% Tween 20 in PBS to form a nanoparticle suspension containing approximately 1.32 mg/ml of 6-BIA in the nanoparticles. After stirring for 30 minutes, 1 mL of the resulting suspension was immediately collected to an Eppendorf tube. The Eppendorf tube was centrifuged at 14,000 rpm for 15 min.

O=C1Nc2cc(Br)ccc2/C1=C1/Nc2ccccc2/C1=N\O [Example 6-BIA, 6-bromoindirubin-3′-oxime]
6-BIA concentration in supernatant (30-minute dissolution): 3.89 µg/mL
